According to publication PMC4208696 (Biophysical chemistry, 2014):
Where two headings read alike, the source gives them in different places.

Legend:
[1] = test system: CaM76–148, sites III and IV; type: binding, mammalian; details: for increase in calcium-binding affinity (more favorable than without peptide) / ΔΔG2^app = ΔG2^app(CaM + Peptide) − ΔG2 (CaM Alone): 2 eq peptide
[2] = molecular target: CaM1–148 (full-length calmodulin) (Homo sapiens, UniProt P0DP23); type: binding, mammalian; details: for ΔG (calcium-saturated): 10 mM CaCl2; for ΔG (calcium-saturated) / ΔG (apo): free energy corresponding to estimated Kd, 22 °C; for Fold Change = (Kd, Apo)/(Kd, Ca^2+): apo vs calcium-saturated; for abundance of the apo CaM-peptide complex: calculated, start of calcium titration, 6 μM CaM1–148 with 2 eq (12 μM) peptide
CaM1–80 (CaM N-domain) = CaM1–80 (CaM N-domain) (Homo sapiens, UniProt P0DP23); type: binding, mammalian; details: for ΔG (calcium-saturated): 10 mM CaCl2; for ΔG (calcium-saturated) / ΔG (apo): free energy corresponding to estimated Kd, 22 °C; for Fold Change = (Kd, Apo)/(Kd, Ca^2+): apo vs calcium-saturated; for abundance of the apo CaM-peptide complex: calculated, start of calcium titration, 6 μM CaM1–80 with 2 eq (12 μM) peptide
CaM76–148 (CaM C-domain) = CaM76–148 (CaM C-domain) (Homo sapiens, UniProt P0DP23); type: binding, mammalian; details: for ΔG (calcium-saturated): 10 mM CaCl2; for ΔG (calcium-saturated) / ΔG (apo): free energy corresponding to estimated Kd, 22 °C; for Fold Change = (Kd, Apo)/(Kd, Ca^2+): apo vs calcium-saturated; for abundance of the apo CaM-peptide complex: calculated, start of calcium titration, 6 μM CaM76–148 with 2 eq (12 μM) peptide
CaM1–148, sites I and II = type: binding, mammalian; details: for increase in calcium-binding affinity (more favorable than without peptide) / ΔΔG2^app = ΔG2^app(CaM + Peptide) − ΔG2 (CaM Alone): 2 eq peptide, sites I and II
CaM1–80, sites I and II = type: binding, mammalian; details: 2 eq peptide
[3] = test system: CaM1–148, sites III and IV; type: binding, mammalian; details: for increase in calcium-binding affinity (more favorable than without peptide) / ΔΔG2^app = ΔG2^app(CaM + Peptide) − ΔG2 (CaM Alone): 2 eq peptide, sites III and IV; for effect of N-domain on calcium-binding affinity of the C-domain: CaM1–148 vs CaM76–148, with 2 eq peptide
full-length CaM = details: absence of magnesium, ref [46]; cited from earlier work
[4] = CaM1–148 with 2 eq peptide (Fig. 5A)

| Substance | ΔG (calcium-saturated) [2] [kcal/mol] | Fold Change = (Kd, Apo)/(Kd, Ca^2+) [2] | ΔG (apo) [2] [kcal/mol] | abundance of the apo CaM-peptide complex [2] | ΔG (calcium-saturated) (CaM1–80 (CaM N-domain)) [kcal/mol] | Fold Change = (Kd, Apo)/(Kd, Ca^2+) (CaM1–80 (CaM N-domain)) | ΔG (apo) (CaM1–80 (CaM N-domain); apo) [kcal/mol] | abundance of the apo CaM-peptide complex (CaM1–80 (CaM N-domain)) | ΔG (calcium-saturated) (CaM76–148 (CaM C-domain)) [kcal/mol] | Fold Change = (Kd, Apo)/(Kd, Ca^2+) (CaM76–148 (CaM C-domain)) | ΔG (apo) (CaM76–148 (CaM C-domain)) [kcal/mol] | abundance of the apo CaM-peptide complex (CaM76–148 (CaM C-domain)) | increase in calcium-binding affinity (more favorable than without peptide) (CaM1–148, sites I and II) [kcal/mol] | ΔΔG2^app = ΔG2^app(CaM + Peptide) − ΔG2 (CaM Alone) (CaM1–148, sites I and II) [kcal/mol] | increase in calcium-binding affinity (more favorable than without peptide) (CaM1–80, sites I and II) [kcal/mol] | ΔΔG2^app = ΔG2^app(CaM + Peptide) − ΔG2 (CaM Alone) (CaM1–80, sites I and II) [kcal/mol] | increase in calcium-binding affinity (more favorable than without peptide) [3] [kcal/mol] | ΔΔG2^app = ΔG2^app(CaM + Peptide) − ΔG2 (CaM Alone) [3] [kcal/mol] | effect of N-domain on calcium-binding affinity of the C-domain [3] | increase in calcium-binding affinity (more favorable than without peptide) [1] [kcal/mol] | further results |
| --- | --- | --- | --- | --- | --- | --- | --- | --- | --- | --- | --- | --- | --- | --- | --- | --- | --- | --- | --- | --- | --- |
| CaM76–148: CaM C-domain, encompassing residues 76 to 148 | – | – | – | – | – | – | – | – | – | – | – | – | – | – | – | – | – | – | – | – | ΔΔG2 (CaM76–148 vs CaM1–148) ([1]; CaM alone): 0.17 ± 0.04 kcal/mol |
| Ac-SRYGLLIKAFSMTAAETARRTREFR-NH2 [hRyR1(1975–1999)p] | -8.34 ± 0.01 | ~1300 | -4.14 | < 2% | -6.62 ± 0.09 | ~600 | -2.91 | < 2% | -6.80 ± 0.05 | ~70 | -4.30 | < 2% | 2.10 ± 0.29 | -2.10 | 0.82 ± 0.15 | -0.82 | 1.09 ± 0.23 | -1.09 ± 0.23 | no significant effect | 0.69 ± 0.09 | saturation of peptide (anisotropy) ([2]; calcium-saturated, at ~100 μM): greater than 85%; saturation of peptide (anisotropy) (CaM1–80 (CaM N-domain); calcium-saturated (10 mM CaCl2), at ~100 μM CaM1–80): greater than 85%; saturation of peptide (anisotropy) (CaM76–148 (CaM C-domain); calcium-saturated, at ~100 μM): greater than 85%; ΔΔG2^app = ΔG2^app(CaM + Peptide) − ΔG2 (CaM Alone) (CaM1–148, sites I and II; listed as 1975): -2.10 ± 0.29 kcal/mol; ΔΔG2^app = ΔG2^app(CaM + Peptide) − ΔG2 (CaM Alone) (CaM1–80, sites I and II; listed as 1975): -0.82 ± 0.15 kcal/mol; ΔΔG2^app = ΔG2^app(CaM + Peptide) − ΔG2 (CaM Alone) [1]: -0.69 ± 0.09 kcal/mol; interaction with apo calmodulin (ITC) in words (full-length CaM): failed to detect an interaction |
| Ac-KSKKAVWHKLLSKQRRRAVVACFRMTPLYN-NH2 [hRyR1(3614–3643)p] | -12.15 | ~7000 | -7.02 ± 0.25 | ~ 64% | -7.59 ± 0.22 | ~600 | -3.81 | ~ 1% | -10.80 | ~2500 | -6.22 ± 0.10 | ~ 33% | 3.78 ± 0.20 | -3.78 ± 0.18 | 2.62 ± 0.11 | -2.62 ± 0.11 | 3.83 ± 0.14 | -3.83 ± 0.14 | no significant effect | 3.41 ± 0.14 | Kd [2]: ≤ 1 nM; binding in words ([2]; apo (absence of calcium)): low micromolar Kd; binding in words ([2]; high calcium concentrations): sub-nanomolar Kd; weaker binding of CaM1–80 than CaM1–148 and CaM76–148 (fold) (CaM1–80 (CaM N-domain); abstract, CaM1–80 required calcium): ~ 250 fold; affinity less favorable than that of apo CaM1–148 (factor) (CaM1–80 (CaM N-domain); apo): 220; calcium dependence of interaction in words (CaM1–80 (CaM N-domain); apo and calcium-saturated): requires calcium for association; affinity higher than for hRyR1(1975–1999)p (fold) (CaM1–80 (CaM N-domain); calcium-saturated N-domain): approximately 5 fold; ΔΔG (hRyR1(3614–3643)p − hRyR1(1975–1999)p) (CaM1–80 (CaM N-domain); calcium-saturated N-domain): -0.97 ± 0.24 kcal/mol; Kd (CaM76–148 (CaM C-domain)): ≤ 10 nM; binds (Ca^2+)2-CaMC more favorably than apo CaMC (CaM76–148 (CaM C-domain); (Ca^2+)2-CaMC vs apo CaMC): ~ 5 kcal/mol; calcium dependence of interaction in words (CaM76–148 (CaM C-domain); apo and calcium-saturated): calcium-independent manner; C-domain fragment affinity more favorable than N-domain fragment (CaM76–148 (CaM C-domain); both in the presence and in the absence of calcium): 2 orders of magnitude; ΔΔG (hRyR1(3614–3643)p − hRyR1(1975–1999)p) (CaM76–148 (CaM C-domain); calcium-saturated C-domain): ≤ -4.00 kcal/mol; ΔΔG2^app = ΔG2^app(CaM + Peptide) − ΔG2 (CaM Alone) (CaM1–148, sites I and II; listed as 3614): -3.78 ± 0.20 kcal/mol; effect of the presence of the C-domain on calcium-binding free energy of sites I and II (more favorable by) (CaM1–148, sites I and II; CaM1–148 vs CaM1–80, with 2 eq peptide): 1.16 ± 0.25 kcal/mol; midpoint of calcium titration, N-domain (CaM1–148, sites I and II; [4]): ~ 1 μM; midpoint of calcium titration, C-domain [3, 4]: ~ 100 nM; ΔΔG2^app = ΔG2^app(CaM + Peptide) − ΔG2 (CaM Alone) [1]: -3.41 ± 0.14 kcal/mol |
